Data published in patent US9242996B2 (Novartis AG, priority 2013, dated 2016).

Target: activated ERK2 (Homo sapiens (Human), UniProt P28482)
Assay: Activated ERK2 (20 pM) Kinase Assay (AlphaScreen, ERKtide phosphorylation)
Format: biochemical
Settings: 0.02 nM ERK2, 400 nM ERKtide peptide, 35 μM ATP, 30 min preincubation
Procedure: Activated ERK2 (20 pM) Kinase Assay:
The assay was carried out in 20 mM HEPES [pH 7.5], 5 mM MgCl2, 1 mM DTT, 0.01% Tween-20, 0.05% BSA using 0.02 nM ERK2, 400 nM ERKtide peptide and 35 μM ATP (all concentrations are final in the reaction) in a total volume of 10.25 μL. […] Compound dilution series were prepared in 100% DMSO. ERK2 was preincubated with compounds for 30 minutes at ambient temperature. Reaction was initiated by addition of a substrate cocktail of ERKtide peptide and ATP and was allowed to proceed for 4 hours at ambient temperature. Reaction was terminated by addition of 10 μL of a 2× stop buffer consisting of 100 mM Tris-Cl [pH 7.5], 25 mM EDTA, 0.01% Tween 20, 20 μg/mL of AlphaScreen Protein A Acceptor Beads, 20 μg/mL of Streptavidin Donor Beads (PerkinElmer, Waltham, Mass.), and 1:1000 dilution phospho-EGF Receptor (Thr669) antibody (Cat #8808, Cell Signaling Technology, Danvers, Mass.). Terminated reactions were read, after overnight incubation in the dark, on an EnVision Multilabel Plate Reader (PerkinElmer, Waltham, Mass.), with excitation and emission wavelengths set to 680 nm and 570 nm, respectively. IC50 values were determined using a four-parameter fit.

Sequence of activated ERK2 (P28482 whole entry): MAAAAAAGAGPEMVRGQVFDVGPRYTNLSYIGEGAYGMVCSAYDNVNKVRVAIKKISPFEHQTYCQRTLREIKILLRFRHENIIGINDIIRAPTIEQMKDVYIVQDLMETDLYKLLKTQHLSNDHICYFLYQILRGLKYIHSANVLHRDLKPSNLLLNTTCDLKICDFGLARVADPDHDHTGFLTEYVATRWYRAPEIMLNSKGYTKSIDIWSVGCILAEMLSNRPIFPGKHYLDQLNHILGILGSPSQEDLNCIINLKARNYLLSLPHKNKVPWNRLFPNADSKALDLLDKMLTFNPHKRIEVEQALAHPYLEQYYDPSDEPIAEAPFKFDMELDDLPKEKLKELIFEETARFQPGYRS

Point of comparison: Nc1ncc(C2CCOCC2)nc1-c1ccc(C(=O)N[C@@H](C#CC2CC2)CO)c(F)c1 [Example 321, (S)-4-(3-amino-6-(tetrahydro-2H-pyran-4-yl)pyrazin-2-yl)-N-(4-cyclopropyl-1-hydroxybut-3-yn-2-yl)-2-fluorobenzamide], IC50 84.9 nM. Against it:
- Nc1ncc(C2CCOCC2)nc1-c1ccc(C(=O)N[C@H](CO)c2cc(F)cc(Br)c2)c(F)c1 [Example 259, (S)-4-(3-amino-6-(tetrahydro-2H-pyran-4-yl)pyrazin-2-yl)-N-(1-(3-bromo-5-fluorophenyl)-2-hydroxyethyl)-2-fluorobenzamide] — 6700-fold lower, 0.0127 nM
- Cc1c(-c2cnc(N)c(-c3ccc(C(=O)N[C@H](CO)c4cccc(CF)c4)c(F)c3)c2)cnn1C(F)F [Example 260, (S)-4-(2-amino-5-(1-(difluoromethyl)-5-methyl-1H-pyrazol-4-yl)pyridin-3-yl)-2-fluoro-N-(1-(3-(fluoromethyl)phenyl)-2-hydroxyethyl) benzamide] — 4100-fold lower, 0.0208 nM
- Cc1nn(C(F)F)cc1-c1cnc(N)c(-c2ccc(C(=O)N[C@H](CO)c3cccc(CF)c3)c(F)c2)c1 [Example 261, (S)-4-(2-amino-5-(1-(difluoromethyl)-3-methyl-1H-pyrazol-4-yl)pyridin-3-yl)-2-fluoro-N-(1-(3-(fluoromethyl)phenyl)-2-hydroxyethyl) benzamide] — 5100-fold lower, 0.0168 nM
- Cc1c(-c2cnc(N)c(-c3ccc(C(=O)N[C@H](CO)c4cc(F)cc(CF)c4)c(F)c3)c2)cnn1C(F)F [Example 262, (S)-4-(2-amino-5-(1-(difluoromethyl)-5-methyl-1H-pyrazol-4-yl)pyridin-3-yl)-2-fluoro-N-(1-(3-fluoro-5-(fluoromethyl)phenyl)-2-hydroxyethyl) benzamide] — 6100-fold lower, 0.014 nM
- Cc1c(-c2cnc(N)c(-c3ccc(C(=O)N[C@H](CO)c4cccc(Cl)c4)c(F)c3)c2)cnn1C(F)F [Example 264, (S)-4-(2-amino-5-(1-(difluoromethyl)-5-methyl-1H-pyrazol-4-yl)pyridin-3-yl)-N-(1-(3-chlorophenyl)-2-hydroxyethyl)-2-fluorobenzamide] — 2000-fold lower, 0.0431 nM
- Cn1nncc1-c1cnc(N)c(-c2ccc(C(=O)N[C@H](CO)c3cc(F)cc(Br)c3)c(F)c2)c1 [Example 265] — 2700-fold lower, 0.031 nM
- Cn1nncc1-c1cnc(N)c(-c2ccc(C(=O)N[C@H](CO)c3cccc(Br)c3)c(F)c2)c1 [Example 266, (S)-4-(2-amino-5-(1-methyl-1H-1,2,3-triazol-5-yl)pyridin-3-yl)-N-(1-(3-bromophenyl)-2-hydroxyethyl)-2-fluorobenzamide] — 1700-fold lower, 0.0487 nM
- Cn1nncc1-c1cnc(N)c(-c2ccc(C(=O)N[C@H](CO)c3cc(F)cc(I)c3)c(F)c2)c1 [Example 267, (S)-4-(2-amino-5-(1-methyl-1H-1,2,3-triazol-5-yl)pyridin-3-yl)-2-fluoro-N-(1-(3-fluoro-5-iodophenyl)-2-hydroxyethyl) benzamide] — 5400-fold lower, 0.0158 nM
- Cc1nn(C)cc1-c1cnc(N)c(-c2ccc(C(=O)N[C@H](CO)c3cc(F)cc(C(F)F)c3)c(F)c2)c1 [Example 270, (S)-4-(2-amino-5-(1,3-dimethyl-1H-pyrazol-4-yl)pyridin-3-yl)-N-(1-(3-(difluoromethyl)-5-fluorophenyl)-2-hydroxyethyl)-2-fluorobenzamide] — 1800-fold lower, 0.0467 nM
- Cc1c(-c2cnc(N)c(-c3ccc(C(=O)N[C@H](CO)c4cc(F)cc(C(F)F)c4)c(F)c3)c2)cnn1C [Example 271, (S)-4-(2-amino-5-(1,5-dimethyl-1H-pyrazol-4-yl)pyridin-3-yl)-N-(1-(3-(difluoromethyl)-5-fluorophenyl)-2-hydroxyethyl)-2-fluorobenzamide] — 2800-fold lower, 0.0308 nM
- Cc1c(-c2cnc(N)c(-c3ccc(C(=O)N[C@H](CO)c4cc(F)cc(C(F)F)c4)c(F)c3)c2)cnn1C(F)F [Example 273, (S)-4-(2-amino-5-(1-(difluoromethyl)-5-methyl-1H-pyrazol-4-yl)pyridin-3-yl)-N-(1-(3-(difluoromethyl)-5-fluorophenyl)-2-hydroxyethyl)-2-fluorobenzamide] — 1800-fold lower, 0.0482 nM
- Cc1nn(C(F)F)cc1-c1cnc(N)c(-c2ccc(C(=O)N[C@H](CO)c3cc(F)cc(C(F)F)c3)c(F)c2)c1 [Example 274, (S)-4-(2-amino-5-(1-(difluoromethyl)-3-methyl-1H-pyrazol-4-yl)pyridin-3-yl)-N-(1-(3-(difluoromethyl)-5-fluorophenyl)-2-hydroxyethyl)-2-fluorobenzamide] — 2700-fold lower, 0.0312 nM
- Cc1c(-c2cnc(N)c(-c3ccc(C(=O)N[C@H](CO)c4cccc(C(F)F)c4)c(F)c3)c2)cnn1C(F)F [Example 275, (S)-4-(2-amino-5-(1-(difluoromethyl)-5-methyl-1H-pyrazol-4-yl)pyridin-3-yl)-N-(1-(3-(difluoromethyl)phenyl)-2-hydroxyethyl)-2-fluorobenzamide] — 1100-fold lower, 0.0745 nM
- Cc1c(-c2cnc(N)c(-c3ccc(C(=O)N[C@H](CO)c4cccc(C(F)F)c4)c(F)c3)c2)cnn1C [Example 276, (S)-4-(2-amino-5-(1,5-dimethyl-1H-pyrazol-4-yl)pyridin-3-yl)-N-(1-(3-(difluoromethyl)phenyl)-2-hydroxyethyl)-2-fluorobenzamide] — 2300-fold lower, 0.0371 nM
- Cc1nn(C)cc1-c1cnc(N)c(-c2ccc(C(=O)N[C@H](CO)c3cccc(C(F)F)c3)c(F)c2)c1 [Example 277, (S)-4-(2-amino-5-(1,3-dimethyl-1H-pyrazol-4-yl)pyridin-3-yl)-N-(1-(3-(difluoromethyl)phenyl)-2-hydroxyethyl)-2-fluorobenzamide] — 1200-fold lower, 0.0707 nM
- Cc1c(-c2cnc(N)c(-c3ccc(C(=O)N[C@H](C)c4cc(F)cc(S(C)(=O)=O)c4)c(F)c3)c2)cnn1C(F)F [Example 278, (R)-4-(2-amino-5-(1-(difluoromethyl)-5-methyl-1H-pyrazol-4-yl)pyridin-3-yl)-2-fluoro-N-(1-(3-fluoro-5-(methylsulfonyl)phenyl)ethyl) benzamide] — 580-fold lower, 0.146 nM
- Cn1nncc1-c1cnc(N)c(-c2ccc(C(=O)N[C@H](CO)c3cccc(C(F)F)c3)c(F)c2)c1 [Example 301] — 910-fold lower, 0.0933 nM
- NC[C@@H](NC(=O)c1ccc(-c2nc([C@@H]3CC[C@@H](O)[C@H](F)C3)cnc2N)cc1F)c1cc(F)cc(I)c1 [Example 315, N-((S)-2-amino-1-(3-fluoro-5-iodophenyl)ethyl)-4-(3-amino-6-((1R,3R,4R)-3-fluoro-4-hydroxy-cyclohexyl)pyrazin-2-yl)-2-fluorobenzamide] — 17000-fold lower, 0.005 nM
- Nc1ncc(C2CCOCC2)nc1-c1ccc(C(=O)N[C@H](CO)c2cc(F)cc(CF)c2)c(F)c1 [Example 329, (S)-4-(3-amino-6-(tetrahydro-2H-pyran-4-yl)pyrazin-2-yl)-2-fluoro-N-(1-(3-fluoro-5-(fluoromethyl)phenyl)-2-hydroxyethyl) benzamide] — 8500-fold lower, 0.01 nM
- Nc1ncc(C2CCOCC2)nc1-c1ccc(C(=O)N[C@H](CO)c2cc(F)cc(Cl)c2)c(F)c1 [Example 330, (S)-4-(3-amino-6-(tetrahydro-2H-pyran-4-yl)pyrazin-2-yl)-N-(1-(3-chloro-5-fluorophenyl)-2-hydroxyethyl)-2-fluorobenzamide] — 3800-fold lower, 0.0222 nM
- C[C@@H](O)[C@@H](NC(=O)c1ccc(-c2nc(C3CCOCC3)cnc2N)cc1F)c1cccc(Cl)c1 [Example 331, 4-(3-amino-6-(tetrahydro-2H-pyran-4-yl)pyrazin-2-yl)-N-((1S,2R)-1-(3-chlorophenyl)-2-hydroxypropyl)-2-fluorobenzamide] — 1300-fold lower, 0.0645 nM
